Measured values: the NIST ThermoML archive (doi:10.1016/j.jct.2017.02.023)

What was measured:
[1] = xn = mol fraction of the nth substance listed; settings: 81.5 kPa, Liquid, Vibrating tube method
[2] = refractive index (Na D-line) (dimensionless); xn = mol fraction of the nth substance listed; settings: 81.5 kPa, Liquid, Standard Abbe refractometry

CNC1CCCCC1 [N-methylcyclohexylamine] + CCCCC(C)O
Settings	mass density, 298.15 K [kg/m3]	mass density, 308.15 K [kg/m3]	mass density, 318.15 K [kg/m3]	mass density, 328.15 K [kg/m3]	refractive index, 298.15 K	refractive index, 308.15 K	refractive index, 318.15 K	refractive index, 328.15 K
[1], x2 = 0	865.2	856.57	847.67	838.68	–	–	–	–
[1], x2 = 0.0915	861.23	852.73	843.97	835.05	–	–	–	–
[1], x2 = 0.1814	857.43	848.96	840.23	831.33	–	–	–	–
[1], x2 = 0.2693	853.71	845.27	836.53	827.62	–	–	–	–
[1], x2 = 0.3559	849.84	841.4	832.77	823.77	–	–	–	–
[1], x2 = 0.44	845.7	837.27	828.7	819.71	–	–	–	–
[1], x2 = 0.5256	841.05	832.6	824.08	815.12	–	–	–	–
[1], x2 = 0.608	836.06	827.68	819.22	810.28	–	–	–	–
[1], x2 = 0.6858	831.06	822.74	814.31	805.47	–	–	–	–
[1], x2 = 0.7668	825.76	817.47	809.16	800.26	–	–	–	–
[1], x2 = 0.8463	820.48	812.27	804.01	795.06	–	–	–	–
[1], x2 = 0.9235	815.36	807.2	798.91	789.93	–	–	–	–
[2], x2 = 0	–	–	–	–	1.45306	1.44812	1.4431	1.43809
[2], x2 = 0.0915	–	–	–	–	1.45049	1.44581	1.44104	1.43628
[2], x2 = 0.1814	–	–	–	–	1.4477	1.44305	1.43835	1.43364
[2], x2 = 0.2693	–	–	–	–	1.445	1.44038	1.43572	1.43103
[2], x2 = 0.3559	–	–	–	–	1.44229	1.4377	1.43309	1.42844
[2], x2 = 0.44	–	–	–	–	1.43938	1.43484	1.43029	1.42569
[2], x2 = 0.5256	–	–	–	–	1.43598	1.43151	1.42702	1.42247
[2], x2 = 0.608	–	–	–	–	1.43233	1.42789	1.42346	1.41895
[2], x2 = 0.6858	–	–	–	–	1.42866	1.42425	1.41985	1.41537
[2], x2 = 0.7668	–	–	–	–	1.42478	1.42041	1.41606	1.41162
[2], x2 = 0.8463	–	–	–	–	1.42103	1.4167	1.4124	1.40799
[2], x2 = 0.9235	–	–	–	–	1.41731	1.41299	1.4087	1.40428

CNC1CCCCC1 [N-methylcyclohexylamine] + CCCCCC(C)O
Settings	mass density, 298.15 K [kg/m3]	mass density, 308.15 K [kg/m3]	mass density, 318.15 K [kg/m3]	mass density, 328.15 K [kg/m3]	refractive index, 298.15 K	refractive index, 308.15 K	refractive index, 318.15 K	refractive index, 328.15 K
[1], x2 = 0	865.2	856.57	847.67	838.68	–	–	–	–
[1], x2 = 0.0812	861.21	852.71	843.93	835.06	–	–	–	–
[1], x2 = 0.1624	857.38	848.98	840.27	831.44	–	–	–	–
[1], x2 = 0.2448	853.62	845.28	836.62	827.83	–	–	–	–
[1], x2 = 0.3273	849.83	841.57	832.96	824.22	–	–	–	–
[1], x2 = 0.4098	845.9	837.7	829.15	820.48	–	–	–	–
[1], x2 = 0.486	842.05	833.91	825.44	816.83	–	–	–	–
[1], x2 = 0.5764	837.18	829.14	820.75	812.23	–	–	–	–
[1], x2 = 0.6517	832.93	824.98	816.67	808.22	–	–	–	–
[1], x2 = 0.7435	827.66	819.81	811.59	803.21	–	–	–	–
[1], x2 = 0.8282	822.84	815.09	806.94	798.61	–	–	–	–
[1], x2 = 0.9132	818.13	810.46	802.36	794.07	–	–	–	–
[2], x2 = 0	–	–	–	–	1.45306	1.44812	1.4431	1.43809
[2], x2 = 0.0812	–	–	–	–	1.45091	1.44613	1.44128	1.43645
[2], x2 = 0.1624	–	–	–	–	1.44856	1.44387	1.4391	1.43432
[2], x2 = 0.2448	–	–	–	–	1.44622	1.44158	1.43686	1.43214
[2], x2 = 0.3273	–	–	–	–	1.44391	1.43933	1.43466	1.42997
[2], x2 = 0.4098	–	–	–	–	1.44151	1.43699	1.43236	1.42773
[2], x2 = 0.486	–	–	–	–	1.43911	1.43464	1.43007	1.4255
[2], x2 = 0.5764	–	–	–	–	1.43598	1.43158	1.42708	1.42258
[2], x2 = 0.6517	–	–	–	–	1.43316	1.42882	1.42438	1.41996
[2], x2 = 0.7435	–	–	–	–	1.42959	1.42534	1.421	1.41664
[2], x2 = 0.8282	–	–	–	–	1.42631	1.42213	1.41786	1.41356
[2], x2 = 0.9132	–	–	–	–	1.423	1.41886	1.41462	1.41037
